One data set deals with p-Hsp27 in U937 cells. The data set is described as follows: Inhibition of p-Hsp27 in LPS-stimulated U937 cells (ELISA). As to conditions: Homo sapiens, U-937; PMA-differentiated U937, 10 ng/ml LPS 0.5 hours; read-out: U937 cell activity test p-HSP27 IC50. In kind it is cell-based. As for the experimental part: U937 cells were treated with 20 ng/ml PMA for differentiation overnight, and after replacement with a fresh culture medium, the U937 cells were rested overnight. After differentiation, the U937 cell were digested and counted, and 25,000 cells per well were seeded in a 96-well plate until the cells adhered to the wall. A compound concentration gradient was prepared, the cells were pretreated with the compound for 1 hour (the highest final concentration of the compound was 1 μM, diluted in 3-fold concentration gradient), and 10 ng/ml LPS (Lipopolysaccharides from Escherichia coli O111:B4) was added for stimulation for 0.5 hours. After the cells were washed with PBS, the cells were lysed with a lysis solution. p-Hsp27 in the cell lysate was detected by using Phospho-HSP27 (S78/S82) DuoSet IC ELISA kit. For specific steps, reference could be made to the standard steps provided by the kit manufacturer.
Calculation of p-Hsp27 inhibition rate: Inhibition rate %=[(mean value of p-Hsp27 in positive control well−mean value of p-Hsp27 in sample well)/(mean value of p-Hsp27 in positive control well−mean value of p-Hsp27 in negative control well)]×100%, wherein the positive control well was a well without a compound (DMSO-treated well), and the negative control well was a well without LPS stimulation.
Dose response curve fitting: Log(inhibitor) vs. response−Variable slope (four parameters) in GraphPad Prism 6 was used for fitting equation analysis of the compound concentration and the corresponding inhibition rate, and the curve was fitted to obtain the IC50 value of the compound.
(§1) The fitting calculation equation was Y=Bottom+(Top−Bottom)/(1+10^((Log IC50−X)*HillSlope)).

The test system of the next data set is TNF-α in U937 cells. Put plainly: Inhibition of the expression level of TNF-α in LPS-stimulated U937 cells (ELISA). It is filed as cell-based. As to conditions: Homo sapiens, U-937; PMA-differentiated U937, 10 ng/ml LPS 4 hours; read-out: U937 cell activity test TNF-α IC50. The protocol: U937 cells were treated with 20 ng/ml PMA for differentiation overnight, and after replacement with a fresh culture medium, the U937 cells were rested overnight. After differentiation, the U937 cells were digested and counted, and 50,000 cells per well were seeded in a 96-well plate until the cells adhered to the wall. A compound concentration gradient was prepared, the cells were pretreated with the compound for 1 hour (the highest final concentration of the compound was 1 μM, diluted in 3-fold concentration gradient), and 10 ng/ml LPS (Lipopolysaccharides from Escherichia coli O111:B4) was added for stimulation for 4 hours. Thereafter, the culture supernatant was collected by centrifugation and used for subsequent ELISA to detect the concentration of TNF-α in the supernatant. The concentration of TNF-α was detected according to the standard steps provided by the ELISA kit manufacturer.
A standard curve was plotted by a linear regression method from a TNF-α standard, and the concentration of TNF-α in a sample was derived by conversion according to the standard curve.
Calculation of inhibition rate: Inhibition rate %=[(mean value of TNF-α concentration in positive control well−mean value of TNF-α concentration in sample well)/(mean value of TNF-α concentration in positive control well−mean value of TNF-α concentration in negative control well)]×100%, wherein the positive control well was a well without a compound (DMSO-treated well), and the negative control well was a culture medium well.
Dose response curve fitting: Log(inhibitor) vs. response−Variable slope (four parameters) in GraphPad Prism 6 was used for fitting equation analysis of the compound concentration and the corresponding inhibition rate, and the curve was fitted to obtain the IC50 value of the compound. The fitting calculation equation was Y=Bottom+(Top−Bottom)/(1+10^((Log IC50−X)*HillSlope)).
A general note: ELISA stands for enzyme-linked immunosorbent assay.

Another data set deals with T1, p38α/MK2 (Homo sapiens, UniProt P49137+Q16539).
T1 construct: purchased R & D systems (p38 alpha); Thermo (MK2) 5477-KS-010; PV3316
The data set is described as follows: Inhibition of p38α/MK2 enzyme activity (TR-FRET, ULight-CREBtide). In kind it is biochemical. The settings on record: for IC50: 0.06 nM p38a, 1.2 nM MK2, 25 μM ATP, read-out: p38/MK2 IC50; for Selectivity ratio (p38 IC50 / p38/MK2 IC50): selectivity ratio p38 IC50 over p38/MK2 IC50. As for the experimental part:
(§2) 50 nM ULight-CREBtide and 25 μM ATP (ATP Solution) were added, and the mixture was reacted at room temperature for 1.5 hours. An equal volume of a detection and termination mixed solution (1×LANCE detection buffer containing 20 mM EDTA and 2 nM Europium-anti-phospho-CREB) was added, the mixture was mixed until uniform and centrifuged, a plate sealing film was attached, and a reaction was performed at room temperature for 1 hour. TR-FRET program of the EnVision instrument was used to read the plate, and the fluorescence value of each well was detected at 665 nm/615 nm.
(§3) Calculation was performed on the raw data (665 nm/615 nm reading ratio) according to the following formula to obtain the inhibition rate. Inhibition rate %=[(mean value in positive control well−value in sample well)/(mean value in positive control well−mean value in negative control well)]×100, wherein the positive control well was a reaction well without a compound […], and the negative control well was a reaction wells without an enzyme.
(§4) Log(inhibitor) vs. response−Variable slope (four parameters) in GraphPad Prism 6 was used for fitting equation analysis of the compound concentration and the corresponding inhibition rate, and the curve was fitted to obtain the IC50 value of the compound.
as §1
(In general: In TR-FRET formats the signal depends on donor and acceptor labels being close together.)

In data set [1] the target is T2, p38a (Active p38 alpha Protein) (Homo sapiens, UniProt Q16539).
T2 construct: purchased R & D systems 5477-KS-010
The data set is described as follows: Inhibition of p38 enzyme activity (TR-FRET, ULight-MBP). In kind it is biochemical. The settings on record: 3 nM p38a, 50 μM ATP. As for the experimental part:
as §2, with “Experimental method for determining the p38 enzyme activity: 3 nM p38a (Active p38 alpha Protein) and compounds diluted in a certain concentration gradient were incubated in 1× enzyme reaction buffer (50 mM HEPES pH 7.5, 1 mM EGTA, 10 mM MgCl2, 2 mM DTT, 0.01% Tween-20) for 1 hour. 50” for “50”, “ULight-MBP” for “ULight-CREBtide”, “50” for “25”, “(ATP 10 mM” for “(ATP”, “Europium-anti-P-MBP)” for “Europium-anti-phospho-CREB)”
as §3, §4, §1

The nature of data set [2]: Pharmacokinetic assay in SD rats (PO administration). As to conditions: male, Sprague-Dawley (SD), rat, plasma; for AUC(0-inf): read-out: Area under the curve AUC0-∞; for half-life: read-out: Half-life t1/2 (converted); for MRT: read-out: Mean residence time MRT; for Cmax: read-out: Plasma concentration Cmax; for Tmax: read-out: Time to peak tmax. It is filed as in vivo. The protocol: SD rats were used as test animals to study the pharmacokinetic behavior of the compounds of the present invention in the rat body (plasma) after oral administration at a dose of 5 mg/kg or 2 mg/kg and intravenous administration at a dose of 1 mg/kg.
3 SD rats/group, male, from Shanghai Jiesijie Experimental Animal Co., Ltd., animal production license number (SCXK (Shanghai) 2013-0006 N0.311620400001794).
PO, 10% solutol HS15 was dissolved by ultrasound and prepared into a clear solution or homogeneous suspension.
3 SD rats/group, male; After fasting overnight, the rats were administered p.o. at a dose of 5 mg/kg or 2 mg/kg with a dosage volume of 10 mL/kg and i.v. at a dose 1 mg/kg with a dosage volume of 5 mL/kg, respectively.
At 0.25, 0.5, 1, 2, 4, 6, 8, and 24 h after oral administration in the rats and at 0.083, 0.25, 0.5, 1, 2, 4, 6, 8, and 24 h after intravenous administration in the rats, 0.2 mL of blood was collected from the jugular vein, placed in an EDTA-K2 test tube, centrifuged at 4° C. at 6000 rpm for 6 min to separate plasma, which was stored at −80° C.
• 1) 100 μL of acetonitrile was added to 20 μL of plasma sample for pelleting, and it was mixed and centrifuged at 3500×g for 5-20 min. • 2) The treated supernatant solution was taken and subjected to LC/MS/MS to analyze the concentrations of the test compounds. LC/MS/MS analysis instrument: AB Sciex API 4000 Qtrap.
• Liquid phase conditions: Shimadzu LC-20AD pump • Chromatographic column: Waters Xbridge C18 5 μm, 4.6×50 mm, mobile phase: liquid A was 0.1% aqueous formic acid solution, and liquid B was methanol • Flow rate: 1.0 mL/min • Elution time: 0-4.0 min, the eluent was as follows:
The main pharmacokinetic parameters were calculated using WinNonlin 6.1.

Where two headings read alike, the source gives them in different places.

As usually defined, the MRT is a mean duration of stay, worked out from the concentration-time curve. As usually defined, the Tmax is the time from dosing to the highest level.

T1 sequence (Q16539 whole entry): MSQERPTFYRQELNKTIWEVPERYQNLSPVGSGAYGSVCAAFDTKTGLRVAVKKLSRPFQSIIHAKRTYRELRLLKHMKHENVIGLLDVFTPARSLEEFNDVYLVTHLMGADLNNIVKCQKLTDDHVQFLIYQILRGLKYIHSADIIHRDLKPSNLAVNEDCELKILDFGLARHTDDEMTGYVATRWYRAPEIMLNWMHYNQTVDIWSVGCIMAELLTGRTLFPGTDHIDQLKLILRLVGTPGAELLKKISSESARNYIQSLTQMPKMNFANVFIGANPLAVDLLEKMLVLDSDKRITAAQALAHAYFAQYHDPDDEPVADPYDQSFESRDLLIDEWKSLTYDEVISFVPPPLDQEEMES
T1 sequence (P49137 whole entry): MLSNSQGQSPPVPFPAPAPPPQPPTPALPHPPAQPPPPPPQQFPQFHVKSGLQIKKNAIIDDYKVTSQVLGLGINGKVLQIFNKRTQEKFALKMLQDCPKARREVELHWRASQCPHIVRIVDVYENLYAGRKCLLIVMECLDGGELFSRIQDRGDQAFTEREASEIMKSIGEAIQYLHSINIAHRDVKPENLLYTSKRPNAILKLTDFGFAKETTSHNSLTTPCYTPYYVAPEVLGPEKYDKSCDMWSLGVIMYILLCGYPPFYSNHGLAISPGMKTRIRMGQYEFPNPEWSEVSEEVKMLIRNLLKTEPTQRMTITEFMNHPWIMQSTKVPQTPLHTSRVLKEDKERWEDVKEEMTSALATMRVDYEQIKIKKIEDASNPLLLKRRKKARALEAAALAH
T2 sequence (Q16539 whole entry): as the sequence (Q16539 whole entry) above

`[2H]C([2H])(Oc1cc2n(c(=O)c1Cl)-c1c(cnc(-n3cc(F)c(C(C)(C)NC(C)=O)n3)c1F)CCCC2)c1ncc(F)cc1F` [Example 6-1, (R)—N-(2-(1-(11-chloro-10-((3,5-difluoropyridin-2-yl)methoxy-d2)-1-fluoro-12-carbonyl-6,7,8,12-tetrahydro-5H-dipyrido[1,2-a:3′,4′-g]azocin-2-yl)-4-fluoro-1H-pyrazol-3-yl)propan-2-yl)acetamide]: in the data set on p-Hsp27 in U937 cells, the IC50 was found to be 0.15 nM. The IC50 in the data set with TNF-α in U937 cells was determined as 0.16 nM. Further, on p38α/MK2, the IC50 is 0.1 nM and the “Selectivity ratio (p38 IC50 / p38/MK2 IC50)” value is given as 153. The IC50 in data set [1] amounted to 15.3 nM. Further, in data set [2] (5 mg/kg), the AUC(0-inf) amounted to 14200 ng·h/mL, the half-life was 2.7 h, the MRT was determined as 2.9 h and the Cmax stood at 4180 ng/mL. In data set [2] (5 mg/kg), the time to peak (Tmax) turned out to be 1 h.
Turning to `[2H]C([2H])(Oc1cc2n(c(=O)c1Cl)-c1c(cnc(-c3ccnc(C(C)(C)NC(C)=O)n3)c1F)CCCC2)c1ncc(F)cc1F` [Example 7-1, (R)—N-(2-(4-(11-chloro-10-((3,5-difluoropyridin-2-yl)methoxy-d2)-1-fluoro-12-carbonyl-6,7,8,12-tetrahydro-5H-dipyrido[1,2-a:3,4′-g]azocin-2-yl)pyrimidin-2-yl)propan-2-yl)acetamide], the IC50 with p-Hsp27 in U937 cells was 0.35 nM. In addition, the IC50 in the data set with TNF-α in U937 cells came to 0.34 nM. On p38α/MK2, the IC50 was found to be 0.34 nM and the “Selectivity ratio (p38 IC50 / p38/MK2 IC50)” value was determined as 144. This compound also had an IC50 in data set [1] of 49.1 nM. Moreover, in data set [2] (2 mg/kg), the AUC(0-inf) came out at 7350 ng·h/mL, the half-life was 1.4 h, the MRT was found to be 2.5 h and the Cmax stood at 2160 ng/mL. Also, in data set [2] (2 mg/kg), the Tmax worked out at 1 h.
As for `[2H]C([2H])(Oc1cc(C)n(-c2cc(-n3cccc(C(C)(C)NC(C)=O)c3=O)ncc2C)c(=O)c1Cl)c1ccc(F)cc1F` [Example 13-1, (S)—N-(2-(3″-chloro-4″-((2,4-difluorophenyl)methoxy-d2)-5′,6″-dimethyl-2,2″-dicarbonyl-2H,2″H-[1,2′:4′,1″-terpyridin]-3-yl)propan-2-yl)acetamide], the IC50 stood at 0.56 nM with p-Hsp27 in U937 cells, 0.51 nM in the data set with TNF-α in U937 cells, 0.12 nM on p38α/MK2 and 16.5 nM in data set [1]. Besides, the “Selectivity ratio (p38 IC50 / p38/MK2 IC50)” value on p38α/MK2 was 138.
With `[2H]C([2H])(Oc1cc(C)n(-c2cc(-n3cccc(C(C)(C)O)c3=O)ncc2C)c(=O)c1Cl)c1ccc(F)cc1F` [Example 14-1, (S)-3″-chloro-4″-((2,4-difluorophenyl)methoxy-d2)-3-(2-hydroxypropan-2-yl)-5′,6″-dimethyl-2H,2″H-[1,2′:4′,1″-terpyridine]-2,2″-dione], the IC50 with p-Hsp27 in U937 cells amounted to 0.13 nM; in the data set with TNF-α in U937 cells, 0.12 nM; on p38α/MK2, 0.05 nM; in data set [1] it was 5.1 nM. At p38α/MK2, the “Selectivity ratio (p38 IC50 / p38/MK2 IC50)” value came to 102.
For `[2H]C([2H])(Oc1cc2n(c(=O)c1Cl)-c1cc(-n3cccc(C(C)(C)O)c3=O)ncc1CCCC2)c1ncc(F)cc1F` [Example 15-1, (S)-11-chloro-10-((3,5-difluoropyridin-2-yl)methoxy-d2)-2-(3-(2-hydroxypropan-2-yl)-2-carbonylpyridin-1(2H)-yl)-5,6,7,8-tetrahydro-12H-dipyrido[1,2-a:3′,4′-g]azocin-12-one], in that order: 0.32 nM, 0.18 nM, 0.2 nM, 53.6 nM and 268.
